Reference: US4012284A (Societa' Farmaceutici Italia, S.p.A., priority 1962, dated 1977)

How the values were obtained:
Sarcoma 180 = Sarcoma 180 (solid) in mice (Table VII); assay type: in vivo, mouse; settings: 2 mg/kg/day intraperitoneally, 7 days
Procedure: (§1) At least 20 animals per lot were used.
(§2) The checking of the activity on solid tumors has been carried out with Ehrlich adenocarcinoma and sarcoma 180 in the mouse and with Walker carcinosarcoma and the Oberling-Guerin-Guerin myeloma in the rat.
Mice grafted with a fragment of neoplastic tissue have been treated intraperitoneally for seven consecutive days, starting from the day following the tumor implantation. The antibiotic was administered in solution at a dose of 2 mg/kg/day. At the tenth day of experiment, all the mice were killed and the tumors and spleens were removed.

[1] = test system: Ascitic myeloma (Oberling-Guerin-Guerin myeloma); test: Ascitic myeloma (Oberling-Guerin-Guerin) in Wistar rats (Table V); assay type: in vivo, rat; settings: for Average survival time: controls 10.7
Procedure: as §1
(§3) Activity tests were carried out on mice, bearing Ehrlich ascitic carcinoma and on rats, which are grafted with hepatoma AH 130 and Oberling-Guerin-Guerin myeloma.
This experiment was carried out on Wister rats, which have been grafted with a suspension of tumor cells and then have been treated intraperitoneously with a solution of the antibiotic according to the following scheme: one group three times on alternate days with a dose equal to 2 mg/kg/day; another group for 5 consecutive days with a dose of 1 mg/kg/day.

Acute toxicity, rat = settings: in vivo
Excerpt: (§4) In the following Table the acute toxicity of Daunomycin as LD50 is reported.

[2] = test system: Oberling-Guerin-Guerin myeloma; test: Oberling-Guerin-Guerin myeloma (solid) in rats, successive experiment (Table XI); assay type: in vivo, rat
Excerpt: as §1
The checking of the activity on solid tumors has been carried out with Ehrlich adenocarcinoma and sarcoma 180 in the mouse and with Walker carcinosarcoma and the Oberling-Guerin-Guerin myeloma in the rat. […]

[3] = test system: Oberling-Guerin-Guerin myeloma; test: Oberling-Guerin-Guerin myeloma (solid) in Long-Evans rats (Table X); settings: 10 days; for % Inhibition (tumor growth) / Average tumor weight: 13th day; for Average tumor weight: controls 17.23; for Mortality: controls 3/12; for Body weight change, not [net]: controls +28.-; for Body weight change, gross: controls +45.2
[4] = test system: tumors, ascitic and solid; test: Antitumor activity on standard experimental animals (summary statements); assay type: in vivo, mouse and rat
Excerpt: as §1

Walker carcinosarcoma [5] = test: Walker carcinosarcoma in rats (Table VIII); assay type: in vivo, rat; settings: for % Inhibition (tumor growth) / Average tumor weight / Mortality / Body weight change, not [net] / Body weight change, gross: 8 times within 10 days; for % Inhibition (tumor growth) / Average tumor weight: 11th day; for Average tumor weight: controls 15.940; for Mortality: controls 1/10; for Body weight change, not [net]: controls +6.96; for Body weight change, gross: controls +22.9
Excerpt: as §1, §2
The rats grafted with this tumor have been treated intravenously 8 times within 10 days; at the 11th day of experiment, the surviving animals were killed and the tumors removed.

[6] = test system: Ehrlich ascitic carcinoma; test: Ehrlich ascitic carcinoma in mice (Table III); assay type: in vivo, mouse; settings: for Body weight increase / Average survival time: 5 days; for Average survival time: controls 16.4
Procedure: as §1, §3
(§5) Mice are grafted intraporitoneally with a suspension of tumor cells and treated with solutions of different concentrations of the antibiotic for five consecutive days starting from the day following the tumor implantation.

[7] = test system: Ehrlich ascitic carcinoma; test: Ehrlich ascitic carcinoma, second experiment, intravenous (Table IV); assay type: in vivo, mouse; settings: 1.75 mg/kg/day intravenously, 4 days
Procedure: as §1, §3, §5
The result has been confirmed by a successive experiment in which the antibiotic has been administered at the dose of 1.75 mg/kg intravenously for 4 days (Table IV).

Walker carcinosarcoma [8] = test: Walker carcinosarcoma in rats, second experiment (Table IX); assay type: in vivo, rat; settings: 3 mg/kg/day intravenously
Procedure: as §1, §2
A second experiment with rats, bearing the same tumor, has been carried out to investigate the effect of the antibiotic on the animals' survival besides the antitumor activity. In this case the rats were treated intravenously 8 times within 12 days at the dose of 3 mg/kg/day.

several microorganisms = test: Bacteriostatic activity / antimicrobial spectrum (summary statements); assay type: cell-based
Ehrlich adenocarcinoma = Ehrlich adenocarcinoma (solid) in mice (Table VI); assay type: in vivo, mouse; settings: controls 0/10
Solubility = assay type: physicochemical
Hepatoma AH 130 = test: Ascitic hepatoma AH 130 in Wistar rats; assay type: in vivo, Wistar rat; settings: 2 and 1 mg/kg/day intraperitoneally, 5 days, after 50 days of the experiment
Procedure: as §1, §3
Wistar rats, grafted with accitic hepatoma have been treated intraperitoneously for 5 consecutive days with antibiotic doses of 2 and 1 mg/kg/day.

Acute toxicity, mouse = settings: in vivo
Excerpt: as §4

[9] = 2.5 mg/kg/day intravenously, 7 times within 14 days

Question: For `COc1cccc2c1C(=O)c1c(O)c3c(c(O)c1C2=O)C[C@@](O)(C(C)=O)C[C@@H]3O[C@H]1C[C@H](N)[C@H](O)[C@H](C)O1` [F.I. 1762], which spleen (Sarcoma 180) is on record?
Answer: marked shrinkage of the spleen

Question: What about the tumor growth (Sarcoma 180) of the same compound?
Answer: marked inhibition of tumor growth

Question: And the Mortality (Sarcoma 180; controls 0/10)?
Answer: 0/10

Question: And the “Body weight change, not [net]” value (Sarcoma 180; controls +2.83)?
Answer: -3.01 grams

Question: What about the “Body weight change, gross” value (Sarcoma 180; controls +5.05) of the same compound?
Answer: -1.72 grams

Question: And the “% Inhibition, spleen” value (Sarcoma 180; tenth day)?
Answer: 62.7%

Question: What about the “% Inhibition, tumor” value (Sarcoma 180; tenth day) of the same compound?
Answer: 42.1%

Question: What about the “Average weight, tumor” value (Sarcoma 180; tenth day, controls 2.225) of the same compound?
Answer: 1.289 grams

Question: And the “Average weight, spleen” value (Sarcoma 180; tenth day, controls 251)?
Answer: 93.5 milligrams

Question: And the Average survival time ([1]; 1 mg/kg/day intraperitoneally, 5 consecutive days)?
Answer: 16.7 days

Question: And the Average survival time ([1]; 2 mg/kg/day intraperitoneally, three times on alternate days)?
Answer: 17.7 days

Question: And the “diffusion of the tumor” value ([1]; 2 mg/kg/day x 3 or 1 mg/kg/day x 5, intraperitoneally)?
Answer: a delay in the diffusion of the tumor has been observed

Question: And the LD50 (Acute toxicity, rat; intravenous)?
Answer: 13 to 15 mg/kg

Question: And the LD50 (Acute toxicity, rat; ip, intraperitoneal)?
Answer: 8 mg/kg

Question: And the “% Inhibition, spleen” value [2, 9]?
Answer: 54.1%

Question: And the “% Inhibition, tumor” value [2, 9]?
Answer: 69.5%

Question: What about the “Average weight, spleen” value ([2]; 2.5 mg/kg/day intravenously, 7 times within 14 days, controls 1.303) of the same compound?
Answer: 0.598 grams

Question: And the Mortality ([2]; 2.5 mg/kg/day intravenously, 7 times within 14 days, controls 5/15)?
Answer: 5/15

Question: And the “Average weight, tumor” value ([2]; 2.5 mg/kg/day intravenously, 7 times within 14 days, controls 13.486)?
Answer: 4.114 grams

Question: And the “Body weight change, not [net]” value ([2]; 2.5 mg/kg/day intravenously, 7 times within 14 days, controls +40.22)?
Answer: +16.79 grams

Question: And the “Body weight change, gross” value ([2]; 2.5 mg/kg/day intravenously, 7 times within 14 days, controls +53.7)?
Answer: +20.9 grams

Question: And the “tolerance of the antibiotic” value ([2]; Tables X and XI, 2 mg and 2.5 mg/kg/day intravenously)?
Answer: good tolerance

Question: And the “activity against this kind of tumor” value ([2]; Tables X and XI, 2 mg and 2.5 mg/kg/day intravenously produced the best results)?
Answer: active also against this kind of tumor

Question: What about the “% Inhibition (tumor growth)” value ([3]; 2 mg/kg/day intravenously) of the same compound?
Answer: 34.5%

Question: What about the Average tumor weight ([3]; 2 mg/kg/day intravenously) of the same compound?
Answer: 11.30 grams

Question: And the Mortality ([3]; 2 mg/kg/day intravenously)?
Answer: 0/12

Question: And the “Body weight change, not [net]” value ([3]; 2 mg/kg/day intravenously)?
Answer: +20 grams

Question: What about the “Body weight change, gross” value ([3]; 2 mg/kg/day intravenously) of the same compound?
Answer: +33.3 grams

Question: What about the “% Inhibition (tumor growth)” value ([3]; 4 mg/kg/day intravenously) of the same compound?
Answer: 82.8%

Question: What about the Average tumor weight ([3]; 4 mg/kg/day intravenously) of the same compound?
Answer: 2.98 grams

Question: What about the Mortality ([3]; 4 mg/kg/day intravenously) of the same compound?
Answer: 4/12

Question: And the “Body weight change, not [net]” value ([3]; 4 mg/kg/day intravenously)?
Answer: +0.8 grams

Question: What about the “Body weight change, gross” value ([3]; 4 mg/kg/day intravenously) of the same compound?
Answer: +3.8 grams

Question: What about the “effect in solid tumors” value ([4]; activity differs according to administration route and dose) of the same compound?
Answer: Good inhibiting effect

Question: And the “effect on the tumor growth in ascitic form” value ([4]; immediate contact of the antibiotic and the neoplastic cells)?
Answer: marked inhibitory effect on the tumor growth in ascitic form

Question: What about the “results by route and dose” value ([4]; intravenous, doses between 2 and 3 mg/kg/body weight day) of the same compound?
Answer: best results

Question: What about the usefulness as antitumoral ([4]; standard experimental animals) of the same compound?
Answer: particularly useful as antitumoral

Question: What about the “% Inhibition (tumor growth)” value (Walker carcinosarcoma [5]; 1 mg/kg/day intravenously) of the same compound?
Answer: 42.1%

Question: What about the Average tumor weight (Walker carcinosarcoma [5]; 1 mg/kg/day intravenously) of the same compound?
Answer: 9.443 grams

Question: What about the Mortality (Walker carcinosarcoma [5]; 1 mg/kg/day intravenously) of the same compound?
Answer: 1/10

Question: And the “Body weight change, not [net]” value (Walker carcinosarcoma [5]; 1 mg/kg/day intravenously)?
Answer: +0.76 grams

Question: And the “Body weight change, gross” value (Walker carcinosarcoma [5]; 1 mg/kg/day intravenously)?
Answer: +10.2 grams

Question: What about the tolerance (Walker carcinosarcoma [5]; 2 mg/kg/day intravenously) of the same compound?
Answer: tolerated

Question: What about the “% Inhibition (tumor growth)” value (Walker carcinosarcoma [5]; 2 mg/kg/day intravenously) of the same compound?
Answer: 66.1%

Question: What about the Average tumor weight (Walker carcinosarcoma [5]; 2 mg/kg/day intravenously) of the same compound?
Answer: 5.404 grams

Question: What about the Mortality (Walker carcinosarcoma [5]; 2 mg/kg/day intravenously) of the same compound?
Answer: 1/10

Question: What about the “Body weight change, not [net]” value (Walker carcinosarcoma [5]; 2 mg/kg/day intravenously) of the same compound?
Answer: +22.25 grams

Question: What about the “Body weight change, gross” value (Walker carcinosarcoma [5]; 2 mg/kg/day intravenously) of the same compound?
Answer: +27.9 grams

Question: And the “effect on this type of tumor” value (Walker carcinosarcoma [5]; especially with 2 mg/kg/day intravenously)?
Answer: marked inhibitory effect

Question: What about the Body weight increase ([6]; 0.75 mg/kg/day, 7 days after implantation, controls +9.6) of the same compound?
Answer: +2.9 grams

Question: And the Body weight increase ([6]; 0.75 mg/kg/day, 14 days after implantation, controls +21.4)?
Answer: +5.3 grams

Question: What about the Body weight increase ([6]; 1.25 mg/kg/day, 7 days after implantation, controls +9.6) of the same compound?
Answer: +1.5 grams

Question: What about the Body weight increase ([6]; 1.25 mg/kg/day, 14 days after implantation, controls +21.4) of the same compound?
Answer: +3.1 grams

Question: And the Body weight increase ([6]; 1.25 mg/kg/day, 21 days after implantation)?
Answer: +4.4 grams

Question: What about the Average survival time ([6]; 1.25 mg/kg/day) of the same compound?
Answer: 32.0 days

Question: What about the Body weight increase ([6]; 1.75 mg/kg/day, 7 days after implantation, controls +9.6) of the same compound?
Answer: +1.3 grams

Question: What about the Body weight increase ([6]; 1.75 mg/kg/day, 14 days after implantation, controls +21.4) of the same compound?
Answer: +2.4 grams

Question: And the Body weight increase ([6]; 1.75 mg/kg/day, 21 days after implantation)?
Answer: +4.7 grams

Question: What about the Average survival time ([6]; 1.75 mg/kg/day) of the same compound?
Answer: 36.4 days

Question: What about the “average survival rate of the treated animals” value ([6]; 1.75 and 1.25 mg/kg/day) of the same compound?
Answer: increased considerably

Question: And the “effect on the ascitic tumor growth” value ([6]; 1.75 and 1.25 mg/kg/day)?
Answer: remarkable inhibitory effect on the ascitic tumor growth

Question: What about the Body weight increase ([7]; 7 days after implantation, controls +6.3) of the same compound?
Answer: +0.1 grams

Question: And the Body weight increase ([7]; 12 days after implantation, controls +14.2)?
Answer: +2.2 grams

Question: And the Average survival time ([7]; controls 12.4)?
Answer: 35.1 days

Question: What about the “increase of average survival” value (Walker carcinosarcoma [8]; 8 times within 12 days) of the same compound?
Answer: 50.8%

Question: And the Tumor growth inhibition (Walker carcinosarcoma [8]; 8 times within 12 days, 9th day)?
Answer: 71.0 % of the control

Question: What about the Tumor growth inhibition (Walker carcinosarcoma [8]; 8 times within 12 days, 29th day) of the same compound?
Answer: 31.6 % of the control

Question: What about the Average survival time (Walker carcinosarcoma [8]; 8 times within 12 days, controls 16.9) of the same compound?
Answer: 25.5 days

Question: What about the “tumor growth inhibition (in words)” value (Walker carcinosarcoma [8]; 20 days after the injections were stopped) of the same compound?
Answer: still continues in a remarkable degree

Question: And the “tumor growth inhibition (in words)” value (Walker carcinosarcoma [8]; during the treatment)?
Answer: considerable during the treatment

Question: And the antimicrobial spectrum (several microorganisms)?
Answer: embraces grampositive, gram-negative bacteria, fungi and protozoa

Question: And the “bacteriostatic activity against several microorganisms” value (several microorganisms)?
Answer: remarkable bacteriostatic activity against several microorganisms

Question: And the Mortality (Ehrlich adenocarcinoma; 3 mg/kg/day)?
Answer: 0/10

Question: What about the Mortality (Ehrlich adenocarcinoma; 6 mg/kg/day) of the same compound?
Answer: 0/10

Question: And the solubility (Solubility; in alcohols, ketones, halogenated hydrocarbons, aqueous solutions of organic and inorganic acids)?
Answer: soluble

Question: What about the solubility (Solubility; in ethers and saturated hydrocarbons) of the same compound?
Answer: practically insoluble

Question: What about the solubility in water (Solubility; water) of the same compound?
Answer: slightly soluble

Question: What about the trace of tumor (Hepatoma AH 130) of the same compound?
Answer: In none of them was any trace of tumor noticed

Question: And the “survival of treated rats” value (Hepatoma AH 130; controls average survival 11.8 days)?
Answer: all the treated rats were still alive after 50 days of the experiment

Question: And the LD50 (Acute toxicity, mouse; intravenous)?
Answer: 20 mg/kg

Question: And the LD50 (Acute toxicity, mouse; ip, intraperitoneal)?
Answer: 5 mg/kg
